In publication PMC3794980, “Identification of Conserved and HLA Promiscuous DENV3 T-Cell Epitopes” (PLoS Neglected Tropical Diseases, 2013):
Where two headings read alike, the source gives them in different places. Where no end group is shown, it is not given here.

How the values were obtained:
Assay in all cases: biochemical
Format in all cases: binding
[1] = biological target: DRB4*0101 (Homo sapiens, UniProt P01903+P13762, G164S)
[2] = biological target: DRB1*0401 (Homo sapiens, UniProt P01903+P01911, A100K/A169T/F76Y/I96L/K127E/L162R/M171V/N62H/P40V/Q125Y/R42H/S133A/S149N/S66Y/V115G/V209L/W38E)
[3] = biological target: DRB3*0101 (Homo sapiens, UniProt P01903+P79483)
[4] = biological target: DRB1*0901 (Homo sapiens, UniProt P01903+P01911, A100R/A103E/D57H/D86V/F55Y/F60I/F76Y/I96F/K127E/L162R/M171V/P40D/Q125H/Q99R/R33Q/R42F/S133A/S66N/T210M/V115G/W38K/Y107V/Y59G/Y89S)
[5] = biological target: DRB1*0405 (Homo sapiens, UniProt P01903+P01911, A100R/A169T/D86S/F76Y/I96L/K127E/L162R/M171V/N62H/P40V/Q125Y/R42H/S133A/S149N/S66Y/V115G/V209L/W38E)
[6] = biological target: DRB1*0404 (Homo sapiens, UniProt P01903+P01911, A100R/A169T/F76Y/I96L/K127E/L162R/M171V/N62H/P40V/Q125Y/R42H/S133A/S149N/S66Y/V209L/W38E)
[7] = biological target: DRB1*1302 (Homo sapiens, UniProt P01903+P01911, A100E/A169T/K41T/L162R/M171V/P40S/Q125H/Q178H/Q39Y/Q99D/R42S/S66N/T262R/V115G/W38E/Y61H)
[8] = biological target: DRB1*0701 (Homo sapiens, UniProt P01903+P01911, A100R/A102G/A103Q/D57E/D86V/E43K/F76Y/K127E/L162R/M171V/P40G/Q125H/Q99D/R33Q/R42Y/R54Q/S133A/S66F/T210M/V115G/Y107V/Y59L/Y89S)
[9] = biological target: DRB1*0101 (Homo sapiens, UniProt P01903+P01911, A100R/D57E/F55L/F60I/F76Y/I96L/L162R/M171V/P40L/Q125E/R42F/V115G/Y59C)
[10] = biological target: DRB1*0802 (Homo sapiens, UniProt P01903+P01911, A100R/A103L/A169T/F76Y/H45Y/I96F/K41T/L162R/M171V/P40S/Q125H/Q178H/Q39Y/Q99D/R218S/R42G/S66Y/V115G/W38E)
[11] = biological target: DRB5*0101 (Homo sapiens, UniProt P01903+Q30154)
[12] = biological target: DRB1*0301 (Homo sapiens, UniProt P01903+P01911, A100K/A102G/A103R/A169T/F55Y/I96L/K41T/L162R/M171V/P40S/Q125H/Q178H/Q39Y/R42S/S66N/T106N/T262R/W38E/Y61H)
[13] = biological target: DRB1*1501 (Homo sapiens, UniProt P01903+P01911)

Sequence of DRB1*1302 (P01903 26-254 limits assumed, other chains not shown): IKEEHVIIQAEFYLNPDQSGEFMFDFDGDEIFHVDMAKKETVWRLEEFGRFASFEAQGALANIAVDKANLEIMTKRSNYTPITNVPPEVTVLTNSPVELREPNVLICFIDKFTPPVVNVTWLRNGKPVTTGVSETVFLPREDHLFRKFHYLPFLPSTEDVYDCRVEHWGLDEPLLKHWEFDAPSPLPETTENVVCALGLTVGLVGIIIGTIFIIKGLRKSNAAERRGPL
Sequence of DRB1*0301 (P01903 26-254, other chains not shown): as the sequence (P01903 26-254 limits assumed, other chains not shown) above

| Molecule | IC50 [1] | IC50 [3] | IC50 [11] | also measured |
| --- | --- | --- | --- | --- |
| CC(C)C[C@H](NC(=O)[C@H](CCC(=O)O)NC(=O)[C@H](CCCCN)NC(=O)[C@@H](N)CCCNC(=N)N)C(=O)N[C@@H](CC(C)C)C(=O)N[C@H](C(=O)N[C@H](C(=O)N[C@@H](Cc1ccccc1)C(=O)N[C@@H](CCCCN)C(=O)N[C@@H](CC(N)=O)C(=O)N[C@@H](C)C(=O)N[C@@H](Cc1c[nH]cn1)C(=O)N[C@@H](C)C(=O)N[C@@H](CCCCN)C(=O)N[C@@H](CCCCN)C(=O)O)[C@@H](C)O)C(C)C [Envelope 231-245] | 0.057 µM | 16.5 µM | 0.025 µM | IC50 [2]: 0.0035 µM; IC50 [4]: 48 nM; IC50 [5]: 0.031 µM; IC50 [6]: 1.59 µM; IC50 [7]: 17200 nM; IC50 [8]: 3.78 µM; IC50 [9]: 0.0051 µM; IC50 [10]: 0.0072 µM; IC50 [12]: 2.32 µM; IC50 [13]: 0.0052 µM |
| CSCC[C@H](NC(=O)[C@H](CC(C)C)NC(=O)[C@H](CCCNC(=N)N)NC(=O)[C@H](Cc1c[nH]cn1)NC(=O)[C@H](CC(=O)O)NC(=O)[C@H](CS)NC(=O)[C@H](CC(C)C)NC(=O)[C@H](CCC(N)=O)NC(=O)[C@@H](NC(=O)[C@H](Cc1ccc(O)cc1)NC(=O)[C@@H](NC(=O)[C@@H](N)CCC(=O)O)C(C)C)[C@@H](C)O)C(=O)N[C@@H](CO)C(=O)N[C@@H](C)C(=O)N[C@@H](C)C(=O)O [NS1 173-187] | 6.15 µM | 0.057 µM | 0.753 µM | IC50 [2]: 0.502 µM; IC50 ([4]; competitive inhibition of radiolabeled standard peptide, '-' distinct from ND, read-out: Binding Affinity (nM) DRB1*0901): 608 nM; IC50 [5]: 1.45 µM; IC50 [6]: 1.29 µM; IC50 ([7]; competitive inhibition of radiolabeled standard peptide, '-' distinct from ND, read-out: Binding Affinity (nM) DRB1*1302): 4600 nM; IC50 [8]: 1.66 µM; IC50 [9]: 0.026 µM; IC50 [10]: 0.9 µM; IC50 [12]: 0.787 µM; IC50 [13]: 1.04 µM |
| CC[C@H](C)[C@H](NC(=O)[C@H](C)NC(=O)[C@H](CC(N)=O)NC(=O)[C@H](C)NC(=O)[C@H](CC(C)C)NC(=O)[C@H](CCC(N)=O)NC(=O)[C@H](CCCNC(=N)N)NC(=O)[C@H](Cc1c[nH]cn1)NC(=O)[C@H](CCC(=O)O)NC(=O)[C@@H]1CCCN1)C(=O)N[C@@H](Cc1ccccc1)C(=O)N[C@@H](CCCCN)C(=O)N[C@@H](CC(C)C)C(=O)N[C@H](C(=O)N[C@@H](Cc1ccc(O)cc1)C(=O)N[C@@H](CCC(N)=O)C(=O)N[C@@H](CC(N)=O)C(=O)O)[C@@H](C)O [NS5 558-574] | – | 1.08 µM | 0.391 µM | IC50 [2]: 2.82 µM; IC50 ([4]; competitive inhibition of radiolabeled standard peptide, DRB1*0901, read-out: Binding Affinity (nM) DRB1*0901): 1930 nM; IC50 [5]: 0.667 µM; IC50 [6]: 2.65 µM; IC50 ([7]; competitive inhibition of radiolabeled standard peptide, DRB1*1302, read-out: Binding Affinity (nM) DRB1*1302): 1400 nM; IC50 [8]: 0.134 µM; IC50 [9]: 0.489 µM; IC50 [10]: 0.539 µM; IC50 [12]: 0.586 µM; IC50 [13]: 0.401 µM |
| CC[C@H](C)[C@H](NC(=O)[C@H](C)NC(=O)[C@H](CC(N)=O)NC(=O)[C@H](C)N)C(=O)N[C@@H](Cc1ccccc1)C(=O)N[C@@H](CCCCN)C(=O)N[C@@H](CC(C)C)C(=O)N[C@H](C(=O)N[C@@H](Cc1ccc(O)cc1)C(=O)N[C@@H](CCC(N)=O)C(=O)N[C@@H](CC(N)=O)C(=O)N[C@@H](CCCCN)C(=O)N[C@H](C(=O)N[C@H](C(=O)N[C@@H](CCCCN)C(=O)N[C@H](C(=O)N[C@@H](CCC(N)=O)C(=O)O)C(C)C)C(C)C)C(C)C)[C@@H](C)O [NS5 564-580] | – | 0.576 µM | 0.305 µM | IC50 [2]: 0.39 µM; IC50 [4]: 100 nM; IC50 [5]: 1.68 µM; IC50 [6]: 4.81 µM; IC50 [7]: 11 nM; IC50 [8]: 0.025 µM; IC50 [9]: 0.019 µM; IC50 [10]: 2.6 µM; IC50 [12]: 0.222 µM; IC50 [13]: 0.028 µM |
| CC[C@H](C)[C@H](NC(=O)[C@H](C)NC(=O)[C@@H](N)CCSC)C(=O)N[C@@H](CO)C(=O)NCC(=O)N[C@@H](CC(=O)O)C(=O)N[C@@H](CC(=O)O)C(=O)N[C@@H](CS)C(=O)N[C@H](C(=O)N[C@H](C(=O)N[C@@H](CCCCN)C(=O)N1CCC[C@H]1C(=O)N[C@H](C(=O)N[C@@H](CC(=O)O)C(=O)N[C@@H](CC(=O)O)C(=O)N[C@@H](CCCNC(=N)N)C(=O)N[C@@H](Cc1ccccc1)C(=O)O)[C@@H](C)CC)C(C)C)C(C)C [NS5 658-674] | 19.4 µM | 1.93 µM | 1.54 µM | – |
| CC[C@H](C)[C@H](N)C(=O)N[C@@H](CC(=O)O)C(=O)N[C@@H](CC(=O)O)C(=O)N[C@@H](CCCNC(=N)N)C(=O)N[C@@H](Cc1ccccc1)C(=O)N[C@@H](C)C(=O)N[C@@H](CC(N)=O)C(=O)N[C@@H](C)C(=O)N[C@@H](CC(C)C)C(=O)N[C@@H](CC(C)C)C(=O)N[C@@H](C)C(=O)N[C@@H](CC(C)C)C(=O)N[C@@H](CC(N)=O)C(=O)N[C@@H](CC(=O)O)C(=O)N[C@@H](CCSC)C(=O)NCC(=O)N[C@@H](CCCCN)C(=O)O [NS5 670-686] | 0.971 µM | 7.5 µM | 0.478 µM | – |
| CC[C@H](C)[C@H](NC(=O)[C@H](CC(C)C)NC(=O)[C@H](CCC(=O)O)NC(=O)[C@H](CC(=O)O)NC(=O)[C@H](CCC(N)=O)NC(=O)[C@@H]1CCCN1C(=O)[C@H](CCCNC(=N)N)NC(=O)[C@H](CS)NC(=O)[C@@H]1CCCN1C(=O)[C@@H](NC(=O)[C@@H](NC(=O)[C@H](CC(C)C)NC(=O)[C@H](CCCCN)NC(=O)[C@H](CCCNC(=N)N)NC(=O)CNC(=O)[C@H](CC(=O)O)NC(=O)[C@@H](N)CCCCN)C(C)C)C(C)C)C(=O)O [NS5 719-735] | 17.8 µM | 5.68 µM | 3.44 µM | – |
| CC(C)[C@H](NC(=O)[C@@H]1CCCN1C(=O)[C@@H](NC(=O)[C@H](C)NC(=O)[C@H](CO)NC(=O)[C@@H](N)CS)C(C)C)C(=O)N[C@@H](Cc1c[nH]cn1)C(=O)N[C@@H](Cc1c[nH]c2ccccc12)C(=O)N[C@H](C(=O)N1CCC[C@H]1C(=O)N[C@H](C(=O)N[C@@H](CO)C(=O)N[C@@H](CCCNC(=N)N)C(=O)N[C@H](C(=O)N[C@H](C(=O)N[C@@H](Cc1c[nH]c2ccccc12)C(=O)O)[C@@H](C)O)[C@@H](C)O)[C@@H](C)O)C(C)C [NS5 780-795] | 0.168 µM | 2.34 µM | 1.95 µM | – |
| CC[C@H](C)[C@H](NC(=O)[C@H](CC(C)C)NC(=O)[C@H](CO)NC(=O)CNC(=O)[C@H](CS)NC(=O)[C@H](Cc1c[nH]c2ccccc12)NC(=O)[C@H](CCC(N)=O)NC(=O)[C@H](CC(=O)O)NC(=O)[C@H](CCC(=O)O)NC(=O)[C@H](CCCNC(=N)N)NC(=O)[C@H](CCCCN)NC(=O)CNC(=O)[C@H](CC(C)C)NC(=O)[C@@H](N)Cc1ccc(O)cc1)C(=O)NCC(=O)N[C@@H](CC(C)C)C(=O)N[C@H](C(=O)O)[C@@H](C)O [NS5 838-854] | 1.59 µM | 0.079 µM | 15.5 µM | – |
| AILPEYGTLGLECSP [Envelope 171-185] | 0.787 µM | 12.6 µM | 17.2 µM | – |
| ALTGATEIQNSGGTS [Envelope 261-275] | 8.57 µM | 17.5 µM | 3.67 µM | – |
| GTILVKVEYKGEDAP [Envelope 316-330] | 6.03 µM | 5.29 µM | 5.26 µM | – |
| LGSQEGAMHTALTGA [Envelope 251-265] | 7.21 µM | 5.59 µM | 0.722 µM | – |
| LKKEVSETQHGTILV [Envelope 306-320] | 7.86 µM | 12.1 µM | 12.6 µM | – |
| MRCVGVGNRDFVEGL [Envelope 1-15] | 3.77 µM | 2.84 µM | 4.83 µM | – |
| TNTFVLKKEVSETQH [Envelope 301-315] | 2.19 µM | 2.83 µM | 4.89 µM | – |
| TRGAVLTYNGKRLEP [NS3 53-67] | 11.5 µM | 3.29 µM | 0.329 µM | – |
| VTFKNAHAKKPEVVV [Envelope 236-250] | 6.76 µM | 18.2 µM | 0.03 µM | – |
